Reference: ChEMBL document CHEMBL5113532, “Design and Characterization of a Natural Arf-GEFs Inhibitor Prodrug CHNQD-01255 with Potent Anti-Hepatocellular Carcinoma Efficacy In Vivo” (J Med Chem, 2022)
In brackets after ≈: the same amount, converted by molar mass. Activity calls are given as the source filed them. No cut-off for these calls is given here.

What was measured:
[1] = Toxicity in ICR mouse assessed as mortality at 45 mg/kg, po qd measured for 14 days; format: organism-based; settings: in vivo, 336 h, time 14 day
[2] = Drug distribution in ICR mouse kidney at 100 mg/kg, ip measured upto 0.5 hrs by UPLC-MS/MS analysis; format: ADME, organism-based; settings: in vivo
[3] = MRT (0 to t) in ICR mouse at 45 mg/kg, po measured after 0.083 to 12 hrs by UPLC-MS/MS analysis; format: ADME, organism-based; settings: in vivo, time 0.083-12 hrs
[4] = Renal toxicity in ICR mouse assessed as change in blood CREA level at 45 mg/kg, po by biochemical assay; format: organism-based; settings: in vivo
[5] = Apparent volume of distribution in ICR mouse at 45 mg/kg, po measured after 0.083 to 12 hrs by UPLC-MS/MS analysis; format: ADME, organism-based; settings: in vivo, time 0.083-12 hrs
[6] = Toxicity in ICR mouse assessed as effect on kidney at 45 mg/kg, po measured after 2 weeks by H and E staining based analysis; format: organism-based; settings: in vivo, 336 h
[7] = Solubility of the compound in saline/DMSO (95/5% V/V) at pH 7.4; format: physicochemical
[8] = Toxicity in ICR mouse assessed as effect on spleen at 45 mg/kg, po measured after 2 weeks by H and E staining based analysis; format: organism-based; settings: in vivo, 336 h
HepG2 [9] = experiment: Antitumor activity against human HepG2 cells xenografted in BALB/c nude mouse assessed as reduction in tumor weight at 1 to 9 mg/kg, iv qd administered daily for 21 consecutive days measured on day 21; format: functional, organism-based; settings: dose 1-9 mg/kg, time 21.0 day
[10] = Hepatotoxicity in ICR mouse assessed as change in blood ALP level at 45 mg/kg, po by biochemical assay; format: toxicity, organism-based; settings: in vivo
[11] = Toxicity in ICR mouse assessed as change in body weight at 100 mg/kg, ip qd measured for 14 days; format: organism-based; settings: in vivo, 336 h, time 14 day
[12] = Solubility of the compound in saline/PEG400 (95/5% V/V) at pH 7.4; format: physicochemical
[13] = Toxicity in BALB/c mouse xenografted with human HepG2 cells assessed as change in body weight at 1 to 9 mg/kg, iv qd at 45 mg/kg, po treated daily for 21 days measured every 3 days upto 21 days; format: organism-based; settings: in vivo, 504 h, dose 1-9 mg/kg, time < 21 day
[14] = Drug elimination in ICR mouse kidney at 100 mg/kg, ip measured for 1.5 hrs by UPLC-MS/MS analysis; format: ADME, organism-based; settings: in vivo
[15] = Toxicity in ICR mouse assessed as effect on liver at 45 mg/kg, po measured after 2 weeks by H and E staining based analysis; format: organism-based; settings: in vivo, 336 h
HepG2 [16] = experiment: Antitumor activity against human HepG2 cells xenografted in BALB/c nude mouse assessed as tumor growth inhibition at 1 mg/kg, iv qd administered daily for 21 consecutive days and measured every 3 days upto 21 days relative to control; format: functional; settings: HepG2, 504 h, time <= 21 day, read-out: TGI
[17] = Hepatotoxicity in ICR mouse assessed as change in blood AST level at 45 mg/kg, po by biochemical assay; format: toxicity, organism-based; settings: in vivo
[18] = Drug distribution in ICR mouse Spleen at 100 mg/kg, ip measured upto 0.5 hrs by UPLC-MS/MS analysis; format: ADME, organism-based; settings: in vivo
[19] = Solubility of the compound in saline/solutol HS-15 (95/5% V/V) at pH 7.4; format: physicochemical
HepG2 [20] = experiment: Antiproliferative activity against human HepG2 cells by MTT assay; format: functional, cell-based
[21] = Drug elimination in ICR mouse lung at 100 mg/kg, ip measured for 1.5 hrs by UPLC-MS/MS analysis; format: ADME, organism-based; settings: in vivo
[22] = Toxicity in ICR mouse assessed as mortality at 100 mg/kg, ip qd measured for 14 days; format: organism-based; settings: in vivo, 336 h, time 14 day
HepG2 [23] = experiment: Antitumor activity against human HepG2 cells xenografted in BALB/c nude mouse assessed as reduction in tumor weight at 45 mg/kg, po qd administered daily for 21 consecutive days and measured on day 21; format: functional, organism-based; settings: time <= 21.0 day
[24] = Acute toxicity in po dosed ICR mouse assessed as maximum tolerated dose; format: organism-based; settings: in vivo
[25] = Stability of the compound at 4 to 60 degree C measured of 5 days by HPLC analysis; format: physicochemical; settings: 120 h; time 5 day
[26] = Solubility of the compound in saline/solutol HS-15 (90/10% V/V) at pH 7.4; format: physicochemical
[27] = MRT (0 to t) in ICR mouse at 10 mg/kg, iv measured after 0.083 to 12 hrs by UPLC-MS/MS analysis; format: ADME, organism-based; settings: in vivo, time 0.083-12 hrs
[28] = Cmax in ICR mouse at 45 mg/kg, po measured after 0.083 to 12 hrs by UPLC-MS/MS analysis; format: ADME, organism-based; design: dose 45 mg/kg, time upper 12 hrs, time lower 0.083 hrs, route po; settings: in vivo
[29] = Stability of the compound in PBS at pH 4 to 9 measured at 25 degree C measured of 7 days by HPLC analysis; format: physicochemical; settings: buffer, pH 4, 168 h; time 7 day
Bel-7402 = experiment: Antiproliferative activity against human Bel-7402 cells by MTT assay; format: functional, cell-based
[30] = Half life in ICR mouse at 45 mg/kg, po measured after 0.083 to 12 hrs by UPLC-MS/MS analysis; format: ADME, organism-based; settings: in vivo, time 0.083-12 hrs
[31] = Drug elimination in ICR mouse spleen at 100 mg/kg, ip measured for 1.5 hrs by UPLC-MS/MS analysis; format: ADME, organism-based; settings: in vivo
[32] = Stability of the compound in absence of light of 100 lux measured of 3 days by HPLC analysis; format: physicochemical; settings: 72 h; time 3 day
[33] = Drug distribution in ICR mouse heart at 100 mg/kg, ip measured upto 0.5 hrs by UPLC-MS/MS analysis; format: ADME, organism-based; settings: in vivo
[34] = Solubility of the compound in saline/DMSO/solutol HS-15 (85/5/10% V/V/V) at pH 7.4; format: physicochemical
[35] = Renal toxicity in ICR mouse assessed as change in blood BUN level at 45 mg/kg, po by biochemical assay; format: organism-based; settings: in vivo
[36] = Solubility of the compound in saline/PEG400 (80/20% V/V) at pH 7.4; format: physicochemical
[37] = Drug distribution in ICR mouse lung at 100 mg/kg, ip measured upto 0.5 hrs by UPLC-MS/MS analysis; format: ADME, organism-based; settings: in vivo
[38] = Clearance in ICR mouse at 45 mg/kg, po measured after 0.083 to 12 hrs by UPLC-MS/MS analysis; format: ADME, organism-based; settings: in vivo, time 0.083-12 hrs
[39] = Cmax in ICR mouse at 10 mg/kg, iv measured after 0.083 to 12 hrs by UPLC-MS/MS analysis; format: ADME, organism-based; design: time 0.083-12 hrs, dose 10 mg/kg, route iv; settings: in vivo
[40] = Drug elimination in ICR mouse liver at 100 mg/kg, ip measured for 1.5 hrs by UPLC-MS/MS analysis; format: ADME, organism-based; settings: in vivo
[41] = Toxicity in BALB/c mouse xenografted with human HepG2 cells assessed as adverse effect at 15 to 45 mg/kg, po qd at 45 mg/kg, po treated daily for 21 days measured every 3 days for 21 days; format: organism-based; settings: in vivo, 504 h, dose 15-45 mg/kg, time 21 day

SMILES: C[C@H]1CCC/C=C/[C@@H]2C[C@H](OC(=O)OCc3cccnc3)C[C@H]2[C@H](O)/C=C/C(=O)O1
- Activity [1]: Non-Toxic
- Drug uptake [2]: Active
- MRT last [3]: 2.92 h
- Activity [4]: Non-Toxic
- Vz [5]: 6339.7436 L/kg
- Activity [6]: Non-Toxic
- solubility [7]: < 1000 µg/mL
- Activity [8]: Non-Toxic
- Activity (HepG2 [9]): Active
- Activity [10]: Non-Toxic
- Activity [11]: Non-Toxic
- solubility [12]: < 1000 µg/mL
- Activity [13]: Non-Toxic
- Drug excretion [14]: Active
- Activity [15]: Non-Toxic
- inhibition in vivo at 1 mg/kg (HepG2 [16]): 36.6%
- Activity [17]: Non-Toxic
- Drug uptake [18]: Active
- solubility [19]: 1000 µg/mL (≈ 2410 µM)
- IC50 (HepG2 [20]): 100 nM
- Drug excretion [21]: Active
- Activity [22]: Non-Toxic
- Activity (HepG2 [23]): Active
- MTD [24]: > 750 mg/kg
- Stability [25]: Stable
- solubility [26]: 5000 µg/mL (≈ 12000 µM)
- MRT last [27]: 0.84 h
- Cmax [28]: 20.3 ng/mL
- Stability [29]: Stable
- IC50 (Bel-7402): 70 nM
- half-life [30]: 7.35 h
- Drug excretion [31]: Active
- Stability [32]: Stable
- Drug uptake [33]: Active
- solubility [34]: 15000 µg/mL (≈ 36100 µM)
- Activity [35]: Non-Toxic
- solubility [36]: < 1000 µg/mL
- Drug uptake [37]: Active
- CL/F [38]: 598 L/h/kg
- Cmax [39]: 2060 ng/mL
- Drug excretion [40]: Active
- Activity [41]: Non-Toxic
